For this assay, the system named is HT-29 cells. Description: HT-29 necroptosis cell viability assay (TNF-α/SMAC mimetic/zVAD-FMK, CellTiter-Glo). It counts as cell-based. The essentials:
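HT-29 cells (~5,000/well, overnight) in FBS-free McCoy's 5A with TNF-α 10 ng/ml, SMAC mimetic 6 μM and zVAD-FMK 10 μM plus 10-point 1:3 compound titration, 20 h at 37°C. ATP measured by CellTiter-Glo luminescence; IC50 as geometric mean of duplicates.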
Background: ATP-based viability assays read luminescence as a measure of living cells.

The mark [1] stands for this setting: Homo sapiens, HT-29, HT-29 necroptosis cell viability, IC50 class symbols, read-out: Activity.
The mark [2] stands for this setting: Homo sapiens, HT-29, HT-29 necroptosis cell viability assay, class symbols for IC50, read-out: Activity.
[3] abbreviates: Homo sapiens, HT-29 cells stimulated with TNF-α (10 ng/ml), SMAC mimetic (6 μM) and zVAD-FMK (10 μM), 20 hours, CellTiter-Glo ATP luminescence, geometric mean IC50 from 10 points, read-out: Activity.

Like-named read-outs stand apart in the source and are kept apart here.

Regarding `N#CC12CC(Nc3cc(Oc4ccc(-n5ncn(Cc6c(F)cccc6F)c5=O)cc4Cl)c(F)cn3)(C1)C2` [Example 392, 3-((4-(2-chloro-4-(4-(2,6-difluorobenzyl)-5-oxo-4,5-dihydro-1H-1,2,4-triazol-1-yl)phenoxy)-5-fluoropyridin-2-yl)amino)bicyclo[1.1.1]pentane-1-carbonitrile], the IC50 under setting [1] was < 0.1 µM.

As for `O=c1n(Cc2c(F)cccc2F)cnn1-c1ccc(Oc2ccnc(N3CCC4(CCOC4)C3)c2)cc1` (stereo not shown) [Example 330, 2-(4-((2-(2-oxa-7-azaspiro[4.4]nonan-7-yl)pyridin-4-yl)oxy)phenyl)-4-(2,6-difluorobenzyl)-2,4-dihydro-3H-1,2,4-triazol-3-one], the IC50 under setting [1] is < 0.1 µM.

On to `Cc1nc(CC#N)sc1Oc1ccc(-n2ncn(Cc3c(F)cccc3F)c2=O)cc1F` [Example 155, 2-(5-(4-(4-(2,6-difluorobenzyl)-5-oxo-4,5-dihydro-1H-1,2,4-triazol-1-yl)-2-fluorophenoxy)-4-methylthiazol-2-yl)acetonitrile], for which the IC50 under setting [2] was < 0.1 µM.

Take `CC(C)(O)C1CCN1c1cc(Oc2ccc(-n3ncn(Cc4c(F)cccc4F)c3=O)cc2F)c(F)cn1` (stereo not shown) [Example 293, 4-(2,6-difluorobenzyl)-2-(3-fluoro-4-((5-fluoro-2-(2-(2-hydroxypropan-2-yl)azetidin-1-yl)pyridin-4-yl)oxy)phenyl)-2,4-dihydro-3H-1,2,4-triazol-3-one]: the IC50 under setting [1] was < 0.1 µM.

On to `Cc1nc(N2CC(C(C)(C)N)C2)sc1Oc1ccc(-n2ncn(Cc3c(F)cccc3F)c2=O)cc1` [Example 68, 2-(4-((2-(3-(2-aminopropan-2-yl)azetidin-1-yl)-4-methylthiazol-5-yl)oxy)phenyl)-4-(2,6-difluorobenzyl)-2,4-dihydro-3H-1,2,4-triazol-3-one], for which the IC50 under setting [3] was < 0.1 µM.

Regarding `Cc1nn(C2COC2)c(C)c1Oc1ccc(-n2ncn(Cc3c(F)cccc3F)c2=O)cc1F` [Example 177, 4-(2,6-difluorobenzyl)-2-(4-((3,5-dimethyl-1-(oxetan-3-yl)-1H-pyrazol-4-yl)oxy)-3-fluorophenyl)-2,4-dihydro-3H-1,2,4-triazol-3-one], the IC50 under setting [2] is < 0.1 µM.

As for `Cc1nc([C@@H](C)O)sc1Oc1ccc(-n2ncn(Cc3c(F)cccc3F)c2=O)cc1F` (single isomer, unassigned) [Example 461], under setting [1], the IC50 was < 0.1 µM.

As to `Cc1nc(C2(O)COC2)sc1Oc1ccc(-n2nc3n(c2=O)[C@H](c2ccccc2)CC3)cc1F` [Example 114, (S)-2-(3-fluoro-4-((2-(3-hydroxyoxetan-3-yl)-4-methylthiazol-5-yl)oxy)phenyl)-5-phenyl-2,5,6,7-tetrahydro-3H-pyrrolo[2,1-c][1,2,4]triazol-3-one], the IC50 under setting [2] is < 0.1 µM.

As for `Cc1cc(N2CC(C)(C#N)C2)nn1Cc1ccc(-n2ncn(Cc3c(F)cccc3F)c2=O)cc1` [Example 541, 1-(1-(4-(4-(2,6-difluorobenzyl)-5-oxo-4,5-dihydro-1H-1,2,4-triazol-1-yl)benzyl)-5-methyl-1H-pyrazol-3-yl)-3-methylazetidine-3-carbonitrile], the IC50 under setting [2] is < 0.1 µM.

As to `N#CCc1nc(COc2ccc(-n3ncn(Cc4c(F)cccc4F)c3=O)cc2F)cs1` [Example 655, 2-[4-[[4-[4-[(2,6-difluorophenyl)methyl]-5-oxo-1,2,4-triazol-1-yl]-2-fluoro-phenoxy]methyl]thiazol-2-yl]acetonitrile], the IC50 (Homo sapiens, HT-29, HT-29 cells, necroptosis induced by TNF-α/SMAC mimetic/zVAD-FMK, CellTiter-Glo, read-out: Activity (IC50 class)) lay within 0.1 to 1 µM.

In the case of `Cc1nc(C(=O)NCC2COC2)sc1Oc1ccc(-n2ncn(Cc3ccccc3F)c2=O)cc1F` [Example 604, 5-(2-fluoro-4-(4-(2-fluorobenzyl)-5-oxo-4,5-dihydro-1H-1,2,4-triazol-1-yl)phenoxy)-4-methyl-N-(oxetan-3-ylmethyl)thiazole-2-carboxamide], the IC50 under setting [2] was < 0.1 µM.

Take `N#C[C@@H]1CCN(c2cc(Oc3ccc(-n4ncn(Cc5c(F)cccc5F)c4=O)cc3)ccn2)C1` [Example 400, (R)-1-(4-(4-(4-(2,6-difluorobenzyl)-5-oxo-4,5-dihydro-1H-1,2,4-triazol-1-yl)phenoxy)pyridin-2-yl)pyrrolidine-3-carbonitrile]: under setting [1], the IC50 was < 0.1 µM.

As to `Cc1c(C(C)(C)O)noc1Oc1ccc(-n2ncn(Cc3c(F)cccc3F)c2=O)cc1F` [Example 472, 4-(2,6-difluorobenzyl)-2-(3-fluoro-4-((3-(2-hydroxypropan-2-yl)-4-methylisoxazol-5-yl)oxy)phenyl)-2,4-dihydro-3H-1,2,4-triazol-3-one], under setting [1], the IC50 is 0.1 to 1 µM.

Regarding `Cn1ncc([N+](=O)[O-])c1Oc1ccc(-n2ncn(Cc3c(F)cccc3F)c2=O)cc1` [Example 95, 4-(2,6-difluorobenzyl)-2-(4-((1-methyl-4-nitro-1H-pyrazol-5-yl)oxy)phenyl)-2,4-dihydro-3H-1,2,4-triazol-3-one], the IC50 under setting [3] was 0.1 to 1 µM.

As for `Cc1nc(C(O)C(F)F)sc1Oc1ccc(-n2ncn(Cc3c(F)cccc3F)c2=O)cc1F` (stereo not shown) [Example 446, 2-(4-((2-(2,2-difluoro-1-hydroxyethyl)-4-methylthiazol-5-yl)oxy)-3-fluorophenyl)-4-(2,6-difluorobenzyl)-2,4-dihydro-3H-1,2,4-triazol-3-one], the IC50 under setting [1] is < 0.1 µM.

For `Cc1nc(CC(N)=O)sc1Oc1ccc(-n2ncn(Cc3c(F)cccc3F)c2=O)cc1F` [Example 168, 2-(5-(4-(4-(2,6-difluorobenzyl)-5-oxo-4,5-dihydro-1H-1,2,4-triazol-1-yl)-2-fluorophenoxy)-4-methylthiazol-2-yl)acetamide], the IC50 under setting [2] was < 0.1 µM.

`Cc1nc(C(F)(F)C(N)=O)sc1Oc1ccc(-n2ncn(Cc3c(F)cccc3F)c2=O)cc1F` [Example 116, 2-(5-(4-(4-(2,6-difluorobenzyl)-5-oxo-4,5-dihydro-1H-1,2,4-triazol-1-yl)-2-fluorophenoxy)-4-methylthiazol-2-yl)-2,2-difluoroacetamide]: the IC50 under setting [2] is < 0.1 µM.

Regarding `Cc1nc(NC(=O)OC(C)(C)C)sc1Sc1ccc(-n2ncn(Cc3ccccc3)c2=O)cc1` [Example 612, tert-butyl (5-((4-(4-benzyl-5-oxo-4,5-dihydro-1H-1,2,4-triazol-1-yl)phenyl)thio)-4-methylthiazol-2-yl)carbamate], the IC50 under setting [2] was < 0.1 µM.

For `CCOC1(C)CN(c2nccc(Oc3ccc(-n4ncn(Cc5c(F)cccc5F)c4=O)cc3Cl)c2Cl)C1` [Example 503, 2-(3-chloro-4-((3-chloro-2-(3-ethoxy-3-methylazetidin-1-yl)pyridin-4-yl)oxy)phenyl)-4-(2,6-difluorobenzyl)-2,4-dihydro-3H-1,2,4-triazol-3-one], the IC50 under setting [2] is < 0.1 µM.

Take `Cc1nc(C(N)=O)sc1Oc1ccc(-n2nc3n(c2=O)C(c2ccccc2)CC3F)cc1F` (stereo not shown) [Example 80, 5-(2-fluoro-4-(7-fluoro-3-oxo-5-phenyl-3,5,6,7-tetrahydro-2H-pyrrolo[2,1-c][1,2,4]triazol-2-yl)phenoxy)-4-methylthiazole-2-carboxamide]: the IC50 (HT-29 cells stimulated with TNF-α (10 ng/ml), SMAC mimetic (6 μM) and zVAD-FMK (10 μM), 20 hours, CellTiter-Glo ATP luminescence, geometric mean IC50 from 10 points, read-out: Activity) is < 0.1 µM.

Consider `Cc1nn(Cc2ccc(-n3ncn(Cc4c(F)cccc4F)c3=O)cc2)c(C)c1N` [Example 193, 2-(4-((4-amino-3,5-dimethyl-1H-pyrazol-1-yl)methyl)phenyl)-4-(2,6-difluorobenzyl)-2,4-dihydro-3H-1,2,4-triazol-3-one], for which the IC50 under setting [2] lay within 1 to 10 µM.

On to `CCOC1(C)CN(c2cc(Oc3ccc(-n4ncn(Cc5c(F)cccc5F)c4=O)cc3Cl)c(F)cn2)C1` [Example 501, 2-(3-chloro-4-((2-(3-ethoxy-3-methylazetidin-1-yl)-5-fluoropyridin-4-yl)oxy)phenyl)-4-(2,6-difluorobenzyl)-2,4-dihydro-3H-1,2,4-triazol-3-one], for which the IC50 under setting [2] is < 0.1 µM.

On to `Cc1nc(C(N)=O)sc1Oc1ccc(-n2ncn(Cc3cnccc3Cl)c2=O)cc1F` [Example 31, 5-(4-(4-((4-chloropyridin-3-yl)methyl)-5-oxo-4,5-dihydro-1H-1,2,4-triazol-1-yl)-2-fluorophenoxy)-4-methylthiazole-2-carboxamide], for which the IC50 under setting [3] is < 0.1 µM.

For `Cc1nc(C2CC(C#N)C2)sc1Oc1ccc(-n2ncn(Cc3c(F)cccc3F)c2=O)cc1` (stereo not shown) [Example 39, 3-(5-(4-(4-(2,6-difluorobenzyl)-5-oxo-4,5-dihydro-1H-1,2,4-triazol-1-yl)phenoxy)-4-methylthiazol-2-yl)cyclobutane-1-carbonitrile], the IC50 under setting [3] was < 0.1 µM.

In the case of `Cc1cc(C(N)=O)n(C)c1Oc1ccc(-n2nc3n(c2=O)[C@H](c2ccccc2)CC3)cc1F` (single isomer, unassigned) [Example 697], under setting [3], the IC50 is < 0.1 µM.

For the molecule `Cc1nc(N2CC(C)(C#N)C2)sc1Oc1ccc(-n2ncn(Cc3c(F)cccc3F)c2=O)cc1` [Example 46, 1-(5-(4-(4-(2,6-difluorobenzyl)-5-oxo-4,5-dihydro-1H-1,2,4-triazol-1-yl)phenoxy)-4-methylthiazol-2-yl)-3-methylazetidine-3-carbonitrile], the IC50 under setting [3] was < 0.1 µM.

For the molecule `Cc1cnn(C)c1Oc1ccc(-n2ncn(Cc3c(F)cccc3F)c2=O)cc1` [Example 176, 4-(2,6-difluorobenzyl)-2-(4-((1,4-dimethyl-1H-pyrazol-5-yl)oxy)phenyl)-2,4-dihydro-3H-1,2,4-triazol-3-one], the IC50 under setting [2] was < 0.1 µM.

Consider `Cc1sc(CCO)nc1Oc1ccc(-n2ncn(Cc3c(F)cccc3F)c2=O)cc1F` [Example 652, 4-[(2,6-difluorophenyl)methyl]-2-[3-fluoro-4-[2-(2-hydroxyethyl)-5-methyl-thiazol-4-yl]oxy-phenyl]-1,2,4-triazol-3-one], for which the IC50 (Homo sapiens, HT-29, read-out: Activity (IC50 class)) lay within 0.1 to 1 µM.

(Values after patent US20250179061A1 (SIRONAX LTD., priority 2022, published 2025).)
